These results are taken from paper PMC3534865 (Bioorganic & medicinal chemistry letters, 2012).

For data set [1], the target named is T1, human M1 (hM1) (Homo sapiens, UniProt P11229).
T1 sequence (P11229 1-460): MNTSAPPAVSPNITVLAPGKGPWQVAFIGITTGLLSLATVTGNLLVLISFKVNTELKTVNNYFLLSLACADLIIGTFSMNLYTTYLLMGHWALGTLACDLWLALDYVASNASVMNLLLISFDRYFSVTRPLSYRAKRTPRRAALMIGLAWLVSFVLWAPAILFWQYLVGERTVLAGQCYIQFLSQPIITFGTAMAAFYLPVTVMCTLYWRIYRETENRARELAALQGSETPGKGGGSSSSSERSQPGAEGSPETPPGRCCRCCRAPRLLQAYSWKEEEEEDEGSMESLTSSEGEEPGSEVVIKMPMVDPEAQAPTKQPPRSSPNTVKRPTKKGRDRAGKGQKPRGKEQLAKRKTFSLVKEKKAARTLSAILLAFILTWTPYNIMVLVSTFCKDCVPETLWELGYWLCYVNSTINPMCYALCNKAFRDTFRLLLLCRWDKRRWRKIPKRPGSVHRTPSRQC
Briefly: hM1 PAM functional. It is filed as cell-based. Particulars: for efficacy (% AChmax) compared with ML137: at the highest concentration tested of 30 μM; for hM1 PAM activity: tested up to 30 μM; for pEC50: Table 2, hM1, mean ± SEM.

The target in data set [2] is T2, hM1 (Homo sapiens, UniProt P11229).
T2 sequence (P11229 1-460): T1 sequence (P11229 1-460)
Briefly: ACh fold-shift experiment. It is filed as cell-based. Particulars: ML137 to 14.

Data set [3] concerns human muscarinic receptor subtypes. It is filed as cell-based. Particulars: hM1 over the other muscarinic receptor subtypes; Figure 4.
A short description of data set [4]: Chemical stability observation. It is filed as physicochemical. The following applies: presumed air oxidation or self-condensation.
The target of data set [5] is T1, human M1 (hM1). The following applies: cited from earlier work.

Entries after “also recorded” stand apart in the source; their conditions may differ.

Regarding `Cn1cc(-c2ccc(CN3c4ccccc4CS3(=O)=O)c(F)c2)cn1` [Compound 13], in data set [1], the “efficacy (% AChmax) compared with ML137” value is “comparable efficacy”. Take `Cn1cc(-c2ccc(CN3C(=O)Cc4ccccc43)c(F)c2)cn1` [Compound 14]: the “decrease in hM1 PAM EC50 (potency) relative to ML137” value in data set [1] (ML137 to 14) is 4 fold. Further, the “efficacy (% AChmax) compared with ML137” value in data set [1] was “comparable efficacy”. The “improvement in ACh fold-shift relative to ML137” value in data set [2] is listed as 10 fold. In addition, in data set [3], the “muscarinic receptor subtype selectivity” value is on record as “little-to-no erosion of muscarinic subtype selectivity; also recorded: very selective for the hM1 receptor”. As to `Cn1cc(-c2ccc(Cn3c(=O)[nH]c4ccccc43)c(F)c2)cn1` [Compound 15], in data set [1], the “hM1 PAM activity” value is “not tolerated”. With `Cn1cc(-c2ccc(CN3CCc4ccccc43)c(F)c2)cn1` [Compound 16], the “hM1 PAM activity” value in data set [1] is on record as “not tolerated”. Turning to `CC(=O)N(Cc1ccc(-c2cnn(C)c2)cc1F)c1ccccc1` [Compound 17], the “hM1 PAM activity” value in data set [1] was “inactive”. `Cn1cc(-c2ccc(CN3C(=O)c4cccc5cccc3c45)c(F)c2)cn1` [Compound 18]: the “hM1 PAM activity” value in data set [1] was “detrimental to activity”. Regarding `Cn1cc(-c2ccc(CN3C(=O)C(N)c4ccccc43)c(F)c2)cn1` (stereo not shown) [Compound 23b], the “increase in hM1 potency over 14” value in data set [1] (ratio of EC50 vs 14) stood at 2 fold. The chemical stability entry in data set [4] is given as “undesirable level of chemical instability”. For `Cn1cc(-c2ccc(CN3C(=O)C(C)(N)c4ccccc43)c(F)c2)cn1` (stereo not shown) [Compound 23c], the “hM1 PAM activity” value in data set [1] is “weakly active”. For the compound `CN(C)C1(C)C(=O)N(Cc2ccc(-c3cnn(C)c3)cc2)c2ccccc21` (stereo not shown) [Compound 23d], in data set [1], the “hM1 PAM activity” value was “weakly active”. As for `Cn1cc(-c2ccc(CN3C(=O)C(C)(O)c4ccccc43)c(F)c2)cn1` (stereo not shown) [Compound 23e], the chemical stability result in data set [4] is “stable”. On to `CCCn1cc(-c2ccc(CN3C(=O)C(O)(C(F)(F)F)c4ccccc43)c(F)c2)cn1` (stereo not shown) [Compound 23k], for which, in data set [1], the “hM1 PAM activity” value is given as “complete loss of activity”.

Turning to `CC(C)n1cc(-c2ccc(CN3C(=O)C(O)(C(F)(F)F)c4ccccc43)c(F)c2)cn1` (stereo not shown) [Compound 23l], the “hM1 PAM activity” value in data set [1] was “complete loss of activity”. Turning to `O=C1N(Cc2ccc(-c3cn[nH]c3)cc2F)c2ccccc2C1(O)C(F)(F)F` (stereo not shown) [Compound 23m], the “hM1 PAM activity” value in data set [1] is “complete loss of activity”. Same read-out and setting: next, `Cn1cc(-c2ccc(Cn3ccccc3=O)c(F)c2)cn1` [Compound 24d]: “loss of all PAM activity”.

The term pEC50 denotes the EC50 on a negative log10 scale, so that one unit is a factor of ten. A higher pEC50 goes with a low EC50. On to `Cn1cc(-c2ccc(CN3C(=O)COc4ccccc43)c(F)c2)cn1` [Compound 24e], for which the pEC50 in data set [1] is recorded as 5.29 ± 0.09. `Cn1cc(-c2ccc(CN3C(=O)CSc4ccccc43)c(F)c2)cn1` [Compound 24h] registered a pEC50 in data set [1] of 5.49 ± 0.12. As to `Cn1cc(-c2ccc(CN3CCSc4ccccc43)c(F)c2)cn1` [Compound 24k], the “hM1 PAM activity” value in data set [1] was “no activity at all”. In the case of `Cn1cc(-c2ccc(CN3C(=O)C(=O)c4ccccc43)c(F)c2)cn1` [ML137], in data set [5], the “%AChmax previously reported” value was 65%.
